Test results taken from patent US9308244B2, “Combination therapy using active immunotherapy” (immatics Biotechnologies GmbH, priority 2007, dated 2016).
“Also recorded” adds a separate entry of the source.

Tests used:
[1] = mouse, in vivo
Protocol: Female C57BL/6 mice (20-25 g, Harlan Winkelmann GmbH, Borchen, Germany) were used for all experiments described in this section. Animals were kept in the animal facility of the Dept. of Immunology at the University of Tuebingen. Animals were cared for by trained animal keepers and health status of animals was supervised by the veterinaries of the University of Tübingen. Feeding with drug was also performed in part by the local animal keepers after special training. All animals were supplied with water and food ad libitum. The described experiments were performed according to procedure no. IM1/06 approved by the Regierungsprasidium Tuebingen.
A liquid, viscous vehicle composed of 30% (w/v) Cremophor EL (Sigma, Deisenhofen, Germany), 30% (w/v) PEG 400 (Sigma, Deisenhofen, Germany), 10% ethanol p.a., 10% glucose was used. Sunitinib and sorafenib were suspended in vehicle according to the planned dosages in a way that […] body weight had to be applied to all mice, according to approx. 50 μl of suspension. Feasible aliquots were prepared from suspensions and from vehicle and stored until use at −20° C. in the dark. Thawed substance was stored at 4° C. and used within the next three days. Animals were weighed before start of treatment and thereafter weekly. The deduced dosage was applied daily using a 1 ml syringe with gavage into the backward cavity of the mouth of the animal without anesthesia. Drug delivery into blood plasma was controlled as described in example 1.
1) Immunization under continuous treatment with tyrosine kinase inhibitors. Pretreatment phase was two weeks (see FIG. 5A). […]
3) The experimental design was identical to a) Beside negative and positive control groups, groups treated with 60 mg/kg body weight sorafenib, and 20 and 40 mg/kg body weight sunitinib were included (6 mice per group). For spleen cells, CD4, Tregs, CD8 cells, and B cells were assessed, for PBMCs CD4, CD8, B cells and Tregs were analyzed.

[2] = test system: human CD8+ T-cells; assay: Artificial APC (pMHC/anti-CD28 bead) priming and expansion of isolated human CD8+ T-cells, MLA-001 tetramer readout; type: cell-based; settings: three stimulation cycles, high and low density pMHC, absence of natural antigen presenting cells
[3] = test system: CD4+ CD25+ Tregs, T cells, B cells, splenocytes; assay: Immune cell populations in spleen and PBMCs of TKI-treated mice; type: in vivo, C57BL/6 mice; settings: 4 weeks treatment
[4] = test system: primary clear cell renal cell carcinoma (ccRCC); assay: mRNA expression in primary ccRCC tumor tissue of a patient treated with sorafenib before surgery; type: in vivo, human
Protocol: mRNA expression was measured as described in 1.1 except that mRNA from 20 primary clear cell renal cell carcinoma (ccRCC) samples of patients not treated with TKIs and 1 locally recurring ccRCC tumor sample of a patient having received sorafenib treatment (800 mg Nexavar™ per day starting 35 days before and stopping 2 days before surgery) previous to surgery were included in this analysis.
Tumor tissue specimens were snap-frozen in liquid nitrogen immediately after surgery and later homogenized with mortar and pestle under liquid nitrogen. Total RNA was prepared from these samples using TRIzol (Invitrogen) or TRI Reagent (Fermentas) followed by a cleanup with RNeasy (QIAGEN); both methods were performed according to the manufacturers' protocols.
Gene expression analysis of the tumor samples was performed by Affymetrix Human Genome (HG) U133A or HG-U133 Plus 2.0 oligonucleotide microarrays (Affymetrix, Santa Clara, Calif., USA). A normal reference kidney sample was hybridized to both array types to achieve direct comparability of all samples.
Briefly, double-stranded cDNA was synthesized from 5-8 μg of total RNA, using SuperScript RTII (Invitrogen) and the oligo-dT-T7 primer (MWG Biotech, Ebersberg, Germany) as described in the manual. […] Pairwise comparisons were calculated using the respective normal reference kidney array as baseline. […] Relative expression values were calculated from the signal log ratios given by the software and the normal kidney sample was arbitrarily set to 1.0.

[5] = RCC of one patient, 800 mg Nexavar per day from 35 to 2 days before surgery, normal kidney = 1.0
[6] = RCC of one patient, 800 mg Nexavar per day from 35 to 2 days before surgery, normal kidney = 1.0, listed as sorafenib

With `CNC(=O)c1cc(Oc2ccc(NC(=O)Nc3ccc(Cl)c(C(F)(F)F)c3)cc2)ccn1` [Sorafenib, 4-(4-{3-[4-Chloro-3-(trifluoromethyl)phenyl]ureido}phenoxy)-N-methylpyrid-ine-2-carboxamide] the Toxic side effects [1] was “without any observed toxic side effects”, the “Priming and expansion of MLA-001 specific CD8+ T-cells (% tetramer+ among CD8+ lymphocytes, total number per well)” value [2] was “no concentration-dependent influence; also recorded: not altered” and the “Number of CD4+ CD25+ Tregs among total CD4+ cells in PBMCs” value [3] was “unchanged or even slightly elevated”. The “Expression relative to normal reference kidney: ADFP” value [4, 5] was 5.7, the “Expression relative to normal reference kidney: APOL1” value [4, 5] was 19.7 and the “Expression relative to normal reference kidney: CCND1” value [4, 5] was 3.2. The “Expression relative to normal reference kidney: GUCY1A3” value [4, 5] was 0.5, the “Expression relative to normal reference kidney: HLA-A” value [4, 5] was 0.9 and the “Expression relative to normal reference kidney: HLA-B” value [4, 5] was 2.1. The “Expression relative to normal reference kidney: HLA-C” value [4, 5] was 1.0, the “Expression relative to normal reference kidney: HLA-DPB1” value [4, 5] was 4.0 and the “Expression relative to normal reference kidney: HLA-DQB1” value [4, 5] was 168.9. For the same compound, the “Expression relative to normal reference kidney: HLA-DRB1” value [4, 5] was 2.8, the “Expression relative to normal reference kidney: KIAA0367” value [4, 5] was 1.2 and the “Expression relative to normal reference kidney: MET” value [4, 5] was 9.8. The “Expression relative to normal reference kidney: MMP7” value [4, 5] was 6.1, the “Expression relative to normal reference kidney: MUC1” value [4, 5] was 0.3 and the “Expression relative to normal reference kidney: PSMB8” value [4, 5] was 3.5. For the same compound, the “Expression relative to normal reference kidney: PSMB9” value [4, 5] was 5.7, the “Expression relative to normal reference kidney: RGS5” value [4, 5] was 1.5 and the “Expression relative to normal reference kidney: TAP1” value [4, 5] was 2.1. The “Expression relative to normal reference kidney: GUCY1A3” value [4, 6] was “at the lower boundary of the range”, the “Expression relative to normal reference kidney: RGS5” value [4, 6] was “at the lower boundary of the range” and the “Expression profile of tumor associated antigens or their HLA presentation in vivo vs range of untreated ccRCC (in words)” value ([4]; one sorafenib-treated patient vs 20 untreated ccRCC, range = mean ± one standard deviation) was “lie within this range for most antigens; also recorded: do not provide any evidence for a potential influence”.
